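A five-concentration, 48-hour dose response in 96-well plates underlies each endpoint, interpolated linearly between surrounding concentrations. Abbreviation: GI50, concentration required for 50% inhibition of growth. TGI is the concentration that stops growth completely.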
Columns and labels:
Experiment in all cases: NCI-60 cell line screen, 48 h
[1] = system: HT29 colon
[2] = system: MALME-3M melanoma
[3] = system: LOX IMVI melanoma
[4] = system: NCI-H460 lung
[5] = system: HCT-116 colon
[6] = system: K-562 leukemia
[7] = system: SN12C renal
[8] = system: HCC-2998 colon
[9] = system: SR leukemia
[10] = system: UO-31 renal

| SMILES | TGI [1] [µM] | TGI [2] [µM] | TGI [3] [µM] | TGI [4] [µM] | TGI [5] [µM] | TGI [6] [µM] | TGI [7] [µM] | TGI [8] [µM] | TGI [9] [µM] | TGI [10] [µM] | GI50 [1] [µM] | GI50 [2] [µM] | GI50 [3] [µM] | GI50 [4] [µM] | GI50 [5] [µM] | GI50 [6] [µM] | GI50 [7] [µM] | GI50 [10] [µM] | GI50 [8] [µM] | GI50 [9] [µM] |
| --- | --- | --- | --- | --- | --- | --- | --- | --- | --- | --- | --- | --- | --- | --- | --- | --- | --- | --- | --- | --- |
| O=C1OC(c2ccco2)=N/C1=C\c1ccc(Cl)c(Cl)c1 | > 100 | > 100 | > 100 | > 100 | > 100 | > 100 | > 100 | > 100 | > 100 |  |  |  |  |  |  |  |  |  |  |  |
| Cc1ccc(S(=O)(=O)N/N=C(\CCN2CCCC2)CC(c2ccccc2)c2c(O)c3ccccc3oc2=O)cc1 (configuration not stated) | > 100 | > 100 | > 100 | > 100 | > 100 | > 100 | > 100 |  | > 100 | > 100 |  |  |  |  |  |  |  |  |  |  |
| CCNc1nnc(CSc2nc(-c3ccccc3)c(-c3ccccc3)[nH]2)s1 | 37.9 | 48.4 | 31.1 | 59.2 | 38.8 |  | 56.5 |  | > 100 | 29.5 |  |  |  |  |  |  |  |  |  |  |
| O=C(Cc1nc2ccccc2s1)C(=O)Nc1ccc(Cl)cc1 | > 100 | > 100 | > 100 | > 100 | > 100 | > 100 | > 100 | > 100 |  | > 100 |  |  |  |  |  |  |  |  |  |  |
| O=C(O)c1ccc(NC(=O)C2C(=O)C(=O)N(c3ccc(C(=O)O)cc3)C2=O)cc1 (configuration not stated) | > 100 | > 100 | > 100 | > 100 | > 100 | > 100 | > 100 | > 100 |  | > 100 |  |  |  |  |  |  |  |  |  |  |
| C/C(=N\NC(=S)N1CCCCCC1)c1nccnc1C | > 100 | > 100 | > 100 |  |  | > 100 | > 100 | > 100 |  |  |  |  |  |  |  |  |  |  |  |  |
| CC(=O)N1CCC2(C=Nc3ccccc32)CC1 | > 100 | > 100 | > 100 | > 100 | > 100 | > 100 |  | > 100 |  |  |  |  |  |  |  |  |  |  |  |  |
| Cn1c(=O)oc2cc(C(=O)CSC(=S)N3CCCCCC3)ccc21 | 36.7 | > 100 |  | > 100 | > 100 | > 100 | > 100 | > 100 | > 100 | > 100 |  |  |  |  |  |  |  |  |  |  |
| COc1cccc(N2C(=O)c3c(c4[nH]c5ccccc5c4c4ccc(C(C)(C)C)cc34)C2=O)c1 |  | > 100 | > 100 | > 100 | > 100 | > 100 | > 100 | > 100 | > 100 | > 100 |  |  |  |  |  |  |  |  |  |  |
| Nc1ccccc1C#CC#Cc1ccccc1N | > 100 | 61.3 | 19.4 | 28.4 | 24.8 | > 100 | 31.4 |  | 69.8 | > 100 | 20.6 | 35.2 | 6.78 | 11.8 | 6.02 | 5.78 | 14.7 | 8 |  |  |
| C/C(CN1C(=O)c2ccccc2C1=O)=N\NS(=O)(=O)c1cccc([N+](=O)[O-])c1 | > 100 | > 100 |  | > 100 | > 100 | > 100 | > 100 | > 100 |  | > 100 |  |  |  |  |  |  |  |  |  |  |
| CC(C)C(C(=O)O)N(CC1(O)OCC(O)C(O)C1O)N=O (configuration not stated) | > 100 | > 100 | > 100 | > 100 | > 100 | > 100 |  | > 100 |  | > 100 |  |  |  |  |  |  |  |  |  |  |
| CC(O)C1OC(O)C2OC(C)(C)OC12 (configuration not stated) | > 100 |  | > 100 | > 100 | > 100 | > 100 | > 100 |  | > 100 | > 100 |  |  |  |  |  |  |  |  |  |  |
| COC(=O)c1c[nH]cc1CCc1c[nH]cc1C(=O)OC | > 100 | > 100 | > 100 | > 100 | > 100 | > 100 | > 100 | > 100 | > 100 |  |  |  |  |  |  |  |  |  |  |  |
| CN(C)CCNC(=O)c1ccc(Nc2nc3ccccc3c3occc23)cc1 | > 100 |  | 3.66 | > 100 | 3.02 | 17.1 | 7.87 | 3.07 |  | 16.2 | 6.31 |  | 1.84 | 28.5 | 1.66 | 4.29 | 2.5 | 3.82 | 1.62 |  |
| O=P(c1ccccc1)(c1ccccc1)C1CC=C(c2ccccc2)C2(CCCC2)C1 (configuration not stated) | > 100 | > 100 | > 100 | > 100 | > 100 | > 100 | > 100 |  |  | 75.3 |  |  |  |  |  |  |  |  |  |  |
| COc1ccc(OCC(=O)O)c2c1CCC(C(C)C)C2=O (configuration not stated) | > 100 | > 100 | > 100 | > 100 | > 100 | > 100 |  | > 100 |  | > 100 |  |  |  |  |  |  |  |  |  |  |
| CC[C@@H]1C[C@@H]2CN3CCc4c([nH]c5ccc(OC)cc45)C(COC(=O)c4ccc(OC)c(OC)c4)(C2)C13 | 39.2 |  | 27.6 | 84.1 | 44 | 43 | 39.3 | 55.4 | 78.4 | 98.8 |  |  |  |  |  |  |  |  |  |  |
| CCCCCCCCCCCCN1C(C)=CS/C1=C\C=C\c1scc(C)[n+]1CCCCCCCCCCCC |  |  | 5.96 | 3.51 |  |  | 4.2 | 11 | > 100 | 12.4 |  |  | 1.79 | 1.43 |  |  | 1.65 | 2.4 | 2.11 | 1.12 |
| CC(=O)Nc1ccc(/C=C(\NC(=O)c2ccccc2)c2nc3ccc4c(c3[nH]2)C(=O)c2ccccc2C4=O)cc1 | > 100 | > 100 | > 100 |  | > 100 | > 100 | > 100 | > 100 |  | 9.17 |  |  |  |  |  |  |  |  |  |  |
| CCN1C(=O)C/C(=C\C(C)=O)Nc2ccccc21 | > 100 | > 100 | > 100 | > 100 | > 100 | > 100 |  | > 100 | > 100 | > 100 |  |  |  |  |  |  |  |  |  |  |
| COc1ccc2[nH]cc(CCNC(C)=O)c2c1 | > 100 | > 100 | > 100 | > 100 | > 100 | > 100 | > 100 |  |  | > 100 |  |  |  |  |  |  |  |  |  |  |
| COC(=O)C1(C)C=C(Nc2ccccc2)C(=O)N1c1ccccc1 (configuration not stated) | > 100 | > 100 | > 100 | > 100 | > 100 | > 100 | > 100 | > 100 |  | > 100 |  |  |  |  |  |  |  |  |  |  |

From PubChem BioAssay (NCI)
